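Interpolation was linear, between the two tested concentrations surrounding the appropriate level; five concentrations were tested over 48 hours in 96-well plates. Definition used: TGI = concentration required for complete inhibition of growth.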
Assays:
Assay in all cases: growth of human tumour cells (NCI), 48 h
U251 CNS = test system: U251 CNS
HOP-62 NSCLC = test system: HOP-62 NSCLC
CAKI-1 renal = test system: CAKI-1 renal
MOLT-4 leukemia = test system: MOLT-4 leukemia
K-562 leukemia = test system: K-562 leukemia
RXF 393 renal = test system: RXF 393 renal
T-47D breast = test system: T-47D breast
MDA-MB-435 = test system: MDA-MB-435
SW-620 colon = test system: SW-620 colon
NCI-H226 lung = test system: NCI-H226 lung
HCC-2998 colon = test system: HCC-2998 colon
SF-268 CNS = test system: SF-268 CNS
M14 melanoma = test system: M14 melanoma
HT29 colon = test system: HT29 colon
NCI-H460 lung = test system: NCI-H460 lung
SF-295 CNS = test system: SF-295 CNS
DU-145 prostate = test system: DU-145 prostate
CCRF-CEM leukemia = test system: CCRF-CEM leukemia
UACC-257 melanoma = test system: UACC-257 melanoma
MDA-N = test system: MDA-N
MDA-MB-231 breast = test system: MDA-MB-231 breast
RPMI-8226 leukemia = test system: RPMI-8226 leukemia
COLO 205 colon = test system: COLO 205 colon
SR leukemia = test system: SR leukemia
BT-549 breast = test system: BT-549 breast
NCI-H23 lung = test system: NCI-H23 lung
MCF7 breast = test system: MCF7 breast
ACHN renal = test system: ACHN renal
NCI/ADR-RES ovarian = test system: NCI/ADR-RES ovarian
UACC-62 melanoma = test system: UACC-62 melanoma
OVCAR-3 ovarian = test system: OVCAR-3 ovarian
SNB-19 CNS = test system: SNB-19 CNS
OVCAR-5 ovarian = test system: OVCAR-5 ovarian
NCI-H522 lung = test system: NCI-H522 lung
MALME-3M melanoma = test system: MALME-3M melanoma
EKVX NSCLC = test system: EKVX NSCLC
SK-MEL-5 melanoma = test system: SK-MEL-5 melanoma
IGROV1 ovarian = test system: IGROV1 ovarian
SN12C renal = test system: SN12C renal
A549 NSCLC = test system: A549 NSCLC
OVCAR-8 ovarian = test system: OVCAR-8 ovarian
LOX IMVI melanoma = test system: LOX IMVI melanoma
HOP-92 NSCLC = test system: HOP-92 NSCLC
SK-OV-3 ovarian = test system: SK-OV-3 ovarian
HL-60(TB) leukemia = test system: HL-60(TB) leukemia
HS 578T breast = test system: HS 578T breast
OVCAR-4 ovarian = test system: OVCAR-4 ovarian
SK-MEL-28 melanoma = test system: SK-MEL-28 melanoma
UO-31 renal = test system: UO-31 renal
SF-539 CNS = test system: SF-539 CNS
HCT-15 colon = test system: HCT-15 colon
HCT-116 colon = test system: HCT-116 colon
TK-10 renal = test system: TK-10 renal
PC-3 prostate = test system: PC-3 prostate
SNB-75 CNS = test system: SNB-75 CNS
786-0 renal = test system: 786-0 renal
KM12 colon = test system: KM12 colon
SK-MEL-2 melanoma = test system: SK-MEL-2 melanoma

With C[C@]12CC[C@H]3[C@@H](CCC4=C[C@@H](N5CCCC5)CC[C@@]43C)[C@@H]1C/C(=C\c1ccncc1)[C@@H]2O as the compound, how does the TGI (U251 CNS) read?
Its TGI is 28.5 µM.

What about the TGI (HOP-62 NSCLC) of the same compound?
The TGI was 18.3 µM.

What about the TGI (CAKI-1 renal) of the same compound?
The TGI was greater than 100 µM.

And the TGI (MOLT-4 leukemia)?
The TGI was greater than 100 µM.

And the TGI (K-562 leukemia)?
The TGI was greater than 100 µM.

And the TGI (RXF 393 renal)?
The TGI was 19 µM.

What about the TGI (T-47D breast) of the same compound?
The TGI was 65.8 µM.

And the TGI (MDA-MB-435)?
The TGI was 27.1 µM.

What about the TGI (SW-620 colon) of the same compound?
Its TGI is 43.6 µM.

What about the TGI (NCI-H226 lung) of the same compound?
Its TGI is 33.7 µM.

What about the TGI (HCC-2998 colon) of the same compound?
The TGI was 18 µM.

What about the TGI (SF-268 CNS) of the same compound?
The TGI was 41.8 µM.

What about the TGI (M14 melanoma) of the same compound?
Its TGI is 5.66 µM.

And the TGI (HT29 colon)?
Its TGI is 11 µM.

And the TGI (NCI-H460 lung)?
The TGI was 26.4 µM.

What about the TGI (SF-295 CNS) of the same compound?
Its TGI is 17.6 µM.

What about the TGI (DU-145 prostate) of the same compound?
Its TGI is 39.5 µM.

And the TGI (CCRF-CEM leukemia)?
Its TGI is greater than 100 µM.

And the TGI (UACC-257 melanoma)?
The TGI was 18.7 µM.

What about the TGI (MDA-N) of the same compound?
Its TGI is 24.9 µM.

And the TGI (MDA-MB-231 breast)?
Its TGI is 29.8 µM.

And the TGI (RPMI-8226 leukemia)?
The TGI was 28.5 µM.

And the TGI (COLO 205 colon)?
Its TGI is 20.7 µM.

And the TGI (SR leukemia)?
The TGI was 12.8 µM.

What about the TGI (BT-549 breast) of the same compound?
The TGI was 38.9 µM.

And the TGI (NCI-H23 lung)?
Its TGI is 34.2 µM.

What about the TGI (MCF7 breast) of the same compound?
The TGI was 26.1 µM.

What about the TGI (ACHN renal) of the same compound?
Its TGI is 40.6 µM.

And the TGI (NCI/ADR-RES ovarian)?
Its TGI is 43.9 µM.

And the TGI (UACC-62 melanoma)?
The TGI was 29.9 µM.

And the TGI (OVCAR-3 ovarian)?
Its TGI is 41.2 µM.

What about the TGI (SNB-19 CNS) of the same compound?
Its TGI is 30.1 µM.

What about the TGI (OVCAR-5 ovarian) of the same compound?
The TGI was 53.6 µM.

What about the TGI (NCI-H522 lung) of the same compound?
The TGI was 24.1 µM.

And the TGI (MALME-3M melanoma)?
Its TGI is 27.8 µM.

What about the TGI (EKVX NSCLC) of the same compound?
Its TGI is 49.6 µM.

What about the TGI (SK-MEL-5 melanoma) of the same compound?
Its TGI is 25.2 µM.

What about the TGI (IGROV1 ovarian) of the same compound?
The TGI was 64.6 µM.

What about the TGI (SN12C renal) of the same compound?
The TGI was 28.5 µM.

What about the TGI (A549 NSCLC) of the same compound?
Its TGI is 29.1 µM.

What about the TGI (OVCAR-8 ovarian) of the same compound?
Its TGI is 63.5 µM.

What about the TGI (LOX IMVI melanoma) of the same compound?
Its TGI is 21.4 µM.

What about the TGI (HOP-92 NSCLC) of the same compound?
Its TGI is 31.2 µM.

And the TGI (SK-OV-3 ovarian)?
The TGI was 61.7 µM.

And the TGI (HL-60(TB) leukemia)?
Its TGI is 41.8 µM.

What about the TGI (HS 578T breast) of the same compound?
The TGI was 36.1 µM.

And the TGI (OVCAR-4 ovarian)?
Its TGI is 75.8 µM.

And the TGI (SK-MEL-28 melanoma)?
Its TGI is 24.2 µM.

What about the TGI (UO-31 renal) of the same compound?
The TGI was 18.4 µM.

And the TGI (SF-539 CNS)?
Its TGI is 28.1 µM.

What about the TGI (HCT-15 colon) of the same compound?
Its TGI is 26.2 µM.

And the TGI (HCT-116 colon)?
Its TGI is 21.1 µM.

And the TGI (TK-10 renal)?
The TGI was 26.5 µM.

And the TGI (PC-3 prostate)?
Its TGI is 30.8 µM.

What about the TGI (SNB-75 CNS) of the same compound?
Its TGI is 42.2 µM.

And the TGI (786-0 renal)?
The TGI was 10.8 µM.

And the TGI (KM12 colon)?
The TGI was 31 µM.

What about the TGI (SK-MEL-2 melanoma) of the same compound?
The TGI was 30.9 µM.
